Test results as given in patent publication US7427597B2, “Method of treating brain tissue damages” (Academia Sinica, priority 2005, dated 2008).
Where no end group is shown, it is not given here.

Test: Physiological parameters in ischemic rats
Format: in vivo
Settings: SN treated vs saline treated rats, n=7
Excerpt: Seven SN treated rats and seven-saline treated rats also had their physiological parameters measured.

TNEIVEEQYTPQSLATLESVFQELGKLTGPNNQ [SN, secretoneurin]
No difference: blood gases | blood glucose | serum electrolyte levels | systemic blood pressure
